Patent publication US20110207804A1, “COMPOSITIONS FOR THE TREATMENT OF NEOPLASTIC DISEASES” (Slotervaart Participaties BV, priority 2008, published 2011)

Legend:
[1] = docetaxel powder dissolution test, 25 mL water in beaker; type: physicochemical; settings: for maximum docetaxel concentration reached / maximum docetaxel in solution, % of total docetaxel present: ±6 mg docetaxel
Protocol: An amount of powder, equal to approximately 6 mg Docetaxel, was placed in a 50 mL beaker. A magnetic stirring bar and 25 mL water were added to the beaker. The solution was stirred at 720 rpm, and kept at approximately 37° C. Samples were collected at various timepoints, and filtrated using a 0.45 μm filter before they were diluted with a 1:4 v/v mixture of methanol and acetonitrile. The filtrated and diluted samples were subsequently analyzed by HPLC-UV (see table 15).

[2] = clinical phase I trial, docetaxel plasma pharmacokinetics; type: in vivo, human; settings: 20 mg docetaxel liquid formulation; 100 mg ritonavir at t=0 plus 100 mg 4 hours after docetaxel; patient 306
Protocol: 10 patients participated in an ongoing clinical phase I trial.
These patients were given medication which consisted of a liquid formulation of docetaxel or a solid composition comprising a solid dispersion of docetaxel, PVP-K30 and SDS (referred to hereinafter as MODRA).
Docetaxel dose: 30 mg for all patients (with the exception of patient 306 who received 20 mg docetaxel). The 30 mg dose was prepared as follows: 3.0 mL Taxotere® premix for intravenous administration (containing 10 mg docetaxel per ml in polysorbate 80 (25% v/v), ethanol (10% (w/w), and water) was mixed with water to a final volume of 25 mL. This solution was orally ingested by the patient with 100 mL tap water.
Docetaxel dose: 30 mg; 2 capsules with 15 mg docetaxel per capsule were ingested. Formulation E from the previous example (1/11 docetaxel, 9/11 PVP-K30 and 1/11 SDS) was selected for further testing in the clinical trial. A new batch of formulation E was produced by dissolving 1200 mg docetaxel anhydrate in 120 mL of t-butanol, and 10800 mg PVP-K30 and 1200 mg SDS (see table 13) in 80 mL of Water for Injection. The docetaxel/t-butanol solution was added to the PVP-K30/SDS/WfI solution under constant stirring. […]
The bioavailability of the MODRA capsules was calculated by: […]

Row | time at which equilibrium concentration is reached [1] | time of stirring to maximum concentration ([1]; 25 mL WfI, 37° C., 720 rpm) | equilibrium docetaxel in solution, % of total docetaxel present ([1]; after precipitation) | equilibrium docetaxel concentration ([1]; after precipitation, 25 mL WfI, 37° C., 720 rpm) | maximum docetaxel concentration reached ([1]; 25 mL WfI, 37° C., 720 rpm) | maximum docetaxel in solution, % of total docetaxel present ([1]; 25 mL WfI, 37° C., 720 rpm) | solubility from 10 to 60 minutes ([1]; 10 to 60 minutes) | fold increase of docetaxel AUC by second boosting dose of ritonavir [2] | SMILES
1 | 15 min | 5 min | ~2% | approximately 6 μg/mL | approximately 12 μg/mL | ~4.7% |  |  | CC(=O)O[C@@]12CO[C@@H]1C[C@H](O)[C@@]1(C)C(=O)[C@H](O)C3=C(C)[C@@H](OC(=O)[C@H](O)[C@@H](NC(=O)OC(C)(C)C)c4ccccc4)C[C@@](O)([C@@H](OC(=O)c4ccccc4)[C@H]21)C3(C)C [Formulation A, Anhydrous Docetaxel]
2 |  | 0.5 min |  |  | 32 µg/mL | 13% | comparable to formulation A |  | CC(=O)O[C@@]12CO[C@@H]1C[C@H](O)[C@@]1(C)C(=O)[C@H](O)C3=C(C)[C@@H](OC(=O)[C@H](O)[C@@H](NC(=O)OC(C)(C)C)c4ccccc4)C[C@@](O)([C@@H](OC(=O)c4ccccc4)[C@H]21)C3(C)C [Formulation B, Amorphous Docetaxel]
3 |  |  |  |  |  |  |  | 1.5 fold | CC(=O)O[C@@]12CO[C@@H]1C[C@H](O)[C@@]1(C)C(=O)[C@H](O)C3=C(C)[C@@H](OC(=O)[C@H](O)[C@@H](NC(=O)OC(C)(C)C)c4ccccc4)C[C@@](O)([C@@H](OC(=O)c4ccccc4)[C@H]21)C3(C)C [docetaxel]
